Experimental data: patent US7462600B2, “Macrolides” (Pfizer Inc, priority 2004, dated 2008)
Values after ≈ are worked out from the molar mass of the structure shown. Where two headings read alike, the source gives them in different places.

Legend:
Assay type in all cases: cell-based
[1] = system: Streptococcus pyogenes 1079; assay: MIC, microtiter broth dilution (NCCLS M100-S14), S. pyogenes 1079 (ermB)
Summary of the method: (§1)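 Broth dilution was run in microtiter trays and read per NCCLS M100-S14 to give MICs. Compounds came from 40 mg/ml DMSO stock solutions. The strain panel paired macrolide-susceptible parents with macrolide-resistant derivatives.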

[2] = system: Streptococcus pneumoniae 1016; assay: MIC, microtiter broth dilution (NCCLS M100-S14), S. pneumoniae 1016 (susceptible)
Summary of the method: as §1

[3] = system: Streptococcus pneumoniae 1095; conditions: microtiter broth dilution
Summary of the method: as §1

[4] = system: Streptococcus pneumoniae 1175; conditions: microtiter broth dilution
Summary of the method: as §1

[5] = system: Haemophilus influenzae 1218; assay: MIC, microtiter broth dilution (NCCLS M100-S14), H. influenzae 1218 (susceptible)
Summary of the method: as §1

[6] = S. pneumoniae 1016 (susceptible)
[7] = H. influenzae 1218 (susceptible)

Structure (SMILES)	MIC S. pyogenes 1079 ([1]; Streptococcus pyogenes 1079)	MIC S. pneumo. 1016 ([2]; Streptococcus pneumoniae 1016)	MIC S. pneumo. 1095 ([3]; Streptococcus pneumoniae 1095)	MIC S. pneumo. 1175 ([4]; Streptococcus pneumoniae 1175)	MIC H. influenzae 1218 ([5]; Haemophilus influenzae 1218)	MIC S. pyogenes 1079 ([1]; S. pyogenes 1079 (ermB))	MIC S. pneumo. 1016 [2, 6]	MIC S. pneumo. 1095 ([3]; S. pneumoniae 1095 (ermB))	MIC S. pneumo. 1175 ([4]; S. pneumoniae 1175 (mefA))	MIC H. influenzae 1218 [5, 7]
CCC1OC(=O)C(C)C(=O)C(C)C(OC2OC(C)CC(N(C)C)C2O)C(C)(OC)CC(C)C(=O)C(C)C2N(C3CN(S(=O)(=O)c4ccc(-n5cccn5)cc4)C3)C(=O)OC12C (centres unmarked) [Example 3.44, 3-descladinosyl-11,12-dideoxy-6-O-methyl-3-oxo-12,11-(oxycarbonyl-(1-(4-(1H-pyrazol-1-yl)benzenesulfonyl)-azetidin-3-yl)-imino)-erythromycin A]	0.12 µg/mL (≈ 0.137 µM)	<0.06 µg/mL	<0.06 µg/mL	<0.06 µg/mL	0.25 µg/mL (≈ 0.286 µM)	–	–	–	–	–
CC[C@H]1OC(=O)[C@H](C)C(=O)[C@H](C)[C@@H](O[C@@H]2O[C@H](C)C[C@H](N(C)C)[C@H]2O)[C@](C)(OC)C[C@@H](C)C(=O)[C@H](C)[C@H]2N(CC3(O)CN(C(=O)c4ccc5ccccc5n4)C3)C(=O)O[C@]12C [7.22]	–	–	–	–	–	>64.00 µg/mL	<0.06 µg/mL	<0.06 µg/mL	0.12 µg/mL (≈ 0.141 µM)	1 µg/mL (≈ 1.17 µM)
CC[C@H]1OC(=O)[C@H](C)C(=O)[C@H](C)[C@@H](O[C@@H]2O[C@H](C)C[C@H](N(C)C)[C@H]2O)[C@](C)(OC)C[C@@H](C)C(=O)[C@H](C)[C@H]2N(C3CN(Cc4ccnc5c(C#N)cccc45)C3)C(=O)O[C@]12C [Example 1.95, 3-descladinosyl-11,12-dideoxy-6-O-methyl-3-oxo-12,11-(oxycarbonyl-(1-(quinoline-8-carbonitrile-4-methyl)-azetidin-3-yl)-imino)-erythromycin A]	1 µg/mL (≈ 1.2 µM)	<0.063 µg/mL	1 µg/mL (≈ 1.2 µM)	<0.063 µg/mL	2 µg/mL (≈ 2.4 µM)	–	–	–	–	–
CCC1OC(=O)C(C)C(=O)C(C)C(OC2OC(C)CC(N(C)C)C2O)C(C)(OC)CC(C)C(=O)C(C)C2N(C3CN(C(=O)Nc4cccc5nccnc45)C3)C(=O)OC12C (centres unmarked) [Example 2.09, N-(quinoxalin-8-yl) aminocarbonyl]	>64.00 µg/mL	<0.06 µg/mL	16 µg/mL (≈ 19.1 µM)	0.25 µg/mL (≈ 0.298 µM)	8 µg/mL (≈ 9.54 µM)	–	–	–	–	–
CCC1OC(=O)C(C)C(=O)C(C)C(OC2OC(C)CC(N(C)C)C2O)C(C)(OC)CC(C)C(=O)C(C)C2N(CC3CCN(Cc4ccc5ccccc5n4)C3)C(=O)OC12C (centres unmarked) [11.04]	–	–	–	–	–	64 µg/mL (≈ 76.5 µM)	<0.06 µg/mL	<0.06 µg/mL	0.12 µg/mL (≈ 0.143 µM)	1 µg/mL (≈ 1.19 µM)
CCC1OC(=O)C(C)C(=O)C(C)C(OC2OC(C)CC(N(C)C)C2O)C(C)(OC)CC(C)C(=O)C(C)C2N(C3CN(S(=O)(=O)c4ccc5nn(C)cc5c4)C3)C(=O)OC12C (centres unmarked) [Example 3.96, 3-descladinosyl-11,12-dideoxy-6-O-methyl-3-oxo-12,11-(oxycarbonyl-(1-(2-methyl-2H-indazole-5-sulfonyl)-azetidin-3-yl)-imino)erythromycin A]	1 µg/mL (≈ 1.16 µM)	<0.06 µg/mL	0.12 µg/mL (≈ 0.139 µM)	2 µg/mL (≈ 2.32 µM)	1 µg/mL (≈ 1.16 µM)	–	–	–	–	–
CCC1OC(=O)C(C)C(=O)C(C)C(OC2OC(C)CC(N(C)C)C2O)C(C)(OC)CC(C)C(=O)C(C)C2N(C3CN(S(=O)(=O)c4ccc(-n5nc(C)cc5C)cc4)C3)C(=O)OC12C (centres unmarked) [Example 3.47, 4-(3,5-dimethyl-1H-pyrazol-1-yl)benzenesulfonyl]	64 µg/mL (≈ 70.9 µM)	<0.06 µg/mL	0.5 µg/mL (≈ 0.554 µM)	<0.06 µg/mL	8 µg/mL (≈ 8.87 µM)	–	–	–	–	–
CC[C@H]1OC(=O)[C@H](C)C(=O)[C@H](C)[C@@H](O[C@@H]2O[C@H](C)C[C@H](N(C)C)[C@H]2O)[C@](C)(OC)C[C@@H](C)C(=O)[C@H](C)[C@H]2N(CC3(C)CN(Cc4ccc5ncccc5c4)C3)C(=O)O[C@]12C [6.01]	>64.00 µg/mL	<0.06 µg/mL	0.5 µg/mL (≈ 0.597 µM)	0.5 µg/mL (≈ 0.597 µM)	1 µg/mL (≈ 1.19 µM)	–	–	–	–	–
CCC1OC(=O)C(C)C(=O)C(C)C(OC2OC(C)CC(N(C)C)C2O)C(C)(OC)CC(C)C(=O)C(C)C2N(C3CN(S(=O)(=O)c4ccc(-c5nnc(C)o5)cc4)C3)C(=O)OC12C (centres unmarked) [Example 3.61, 3-descladinosyl-11,12-dideoxy-4-O-methyl-3-oxo-12,11-(oxycarbonyl-(1-(4-(5-methyl-1,3,4-oxadiazol-2-yl)benzenesulfonyl)-azetidin-3-yl)-imino)-erythromycin A]	2 µg/mL (≈ 2.25 µM)	<0.06 µg/mL	2 µg/mL (≈ 2.25 µM)	0.12 µg/mL (≈ 0.135 µM)	2 µg/mL (≈ 2.25 µM)	–	–	–	–	–
CCC1OC(=O)C(C)C(=O)C(C)C(OC2OC(C)CC(N(C)C)C2O)C(C)(OC)CC(C)C(=O)C(C)C2N(CC3CCN(Cc4ccno4)C3)C(=O)OC12C (centres unmarked) [13.06]	–	–	–	–	–	>64.00 µg/mL	<0.06 µg/mL	>64.00 µg/mL	0.5 µg/mL (≈ 0.644 µM)	2 µg/mL (≈ 2.57 µM)
CCC1OC(=O)C(C)C(=O)C(C)C(OC2OC(C)CC(N(C)C)C2O)C(C)(OC)CC(C)C(=O)C(C)C2N(C3CN(S(=O)(=O)c4ccc5oc(=O)[nH]c5c4)C3)C(=O)OC12C (centres unmarked) [Example 3.43, 3-descladinosyl-11,12-dideoxy-6-O-methyl-3-oxo-12,11-(oxycarbonyl-(1-(2,3-dihydro-2-oxobenzo[d]oxazole-5-sulfonyl)-azetidin-3-yl)-imino)-erythromycin A]	1 µg/mL (≈ 1.16 µM)	<0.06 µg/mL	<0.06 µg/mL	0.5 µg/mL (≈ 0.578 µM)	0.5 µg/mL (≈ 0.578 µM)	–	–	–	–	–
CCC1OC(=O)C(C)C(=O)C(C)C(OC2OC(C)CC(N(C)C)C2O)C(C)(OC)CC(C)C(=O)C(C)C2N(CC3CN(Cc4n[nH]c5cc(Cl)ccc45)C3)C(=O)OC12C (centres unmarked) [4.23]	16 µg/mL (≈ 18.9 µM)	<0.06 µg/mL	4 µg/mL (≈ 4.73 µM)	0.12 µg/mL (≈ 0.142 µM)	<0.06 µg/mL	–	–	–	–	–
CC[C@H]1OC(=O)[C@H](C)C(=O)[C@H](C)[C@@H](O[C@@H]2O[C@H](C)C[C@H](N(C)C)[C@H]2O)[C@](C)(OC)C[C@@H](C)C(=O)[C@H](C)[C@H]2N(C3CN([C@H](C)c4ccnc5ncccc45)C3)C(=O)O[C@]12C [Example 1.25, 3-descladinosyl-11,12-dideoxy-6-O-methyl-3-oxo-12,11-(oxycarbonyl-(1-(1R-(1,8-naphthyridin4-yl)-ethyl)-azetidin-3-yl)-imino)-erythromycin A]	1 µg/mL (≈ 1.21 µM)	<0.06 µg/mL	<0.06 µg/mL	0.25 µg/mL (≈ 0.303 µM)	0.5 µg/mL (≈ 0.607 µM)	–	–	–	–	–
CCC1OC(=O)C(C)C(=O)C(C)C(OC2OC(C)CC(N(C)C)C2O)C(C)(OC)CC(C)C(=O)C(C)C2N(C3CN(C(=O)Nc4ccc5ncccc5c4)C3)C(=O)OC12C (centres unmarked) [Example 2.05, N-(quinolin-6-yl) aminocarbonyl]	64 µg/mL (≈ 76.4 µM)	<0.06 µg/mL	16 µg/mL (≈ 19.1 µM)	<0.06 µg/mL	0.5 µg/mL (≈ 0.597 µM)	–	–	–	–	–
CCC1OC(=O)C(C)C(=O)C(C)C(OC2OC(C)CC(N(C)C)C2O)C(C)(OC)CC(C)C(=O)C(C)C2N(CC3CCN(Cc4cnn(-c5cccnc5)c4)C3)C(=O)OC12C (centres unmarked) [11.15]	–	–	–	–	–	64 µg/mL (≈ 75 µM)	<0.06 µg/mL	<0.06 µg/mL	0.5 µg/mL (≈ 0.586 µM)	2 µg/mL (≈ 2.34 µM)
CCC1OC(=O)C(C)C(=O)C(C)C(OC2OC(C)CC(N(C)C)C2O)C(C)(OC)CC(C)C(=O)C(C)C2N(C3CN(S(=O)(=O)c4cccc(-c5ncon5)c4)C3)C(=O)OC12C (centres unmarked) [Example 3.41, 3-descladinosyl-11,12-dideoxy-6-O-methyl-3-oxo-12,11-(oxycarbonyl-(1-(3-(1,2,4-oxadiazol-3-yl)benzenesulfonyl)-azetidin-3-yl)-imino)-erythromycin A]	8 µg/mL (≈ 9.13 µM)	<0.06 µg/mL	<0.06 µg/mL	<0.06 µg/mL	0.25 µg/mL (≈ 0.285 µM)	–	–	–	–	–
CCC1OC(=O)C(C)C(=O)C(C)C(OC2OC(C)CC(N(C)C)C2O)C(C)(OC)CC(C)C(=O)C(C)C2N(C3CN(C(C)c4ccncc4)C3)C(=O)OC12C (stereo not drawn) [Example 1.22, 1S-(pyridin-4-yl)ethyl]	>64.00 µg/mL	<0.06 µg/mL	1 µg/mL (≈ 1.29 µM)	1 µg/mL (≈ 1.29 µM)	16 µg/mL (≈ 20.7 µM)	–	–	–	–	–
CCC1OC(=O)C(C)C(=O)C(C)C(OC2OC(C)CC(N(C)C)C2O)C(C)(OC)CC(C)C(=O)C(C)C2N(C3CN(S(=O)(=O)c4ccc(Oc5cccnc5)cc4)C3)C(=O)OC12C (centres unmarked) [Example 3.27, 4-(pyridin-3-yloxy) benzenesulfonyl]	32 µg/mL (≈ 35.5 µM)	<0.06 µg/mL	<0.06 µg/mL	<0.06 µg/mL	1 µg/mL (≈ 1.11 µM)	–	–	–	–	–
CCC1OC(=O)C(C)C(=O)C(C)C(OC2OC(C)CC(N(C)C)C2O)C(C)(OC)CC(C)C(=O)C(C)C2N(C3CN(C(=O)c4ccnc(-n5cnnn5)c4)C3)C(=O)OC12C (centres unmarked) [Example 2.19, 2-(1H-tetrazol-1-yl)pyridine-4-carboxyl]	>64.00 µg/mL	<0.06 µg/mL	>64.00 µg/mL	0.5 µg/mL (≈ 0.595 µM)	32 µg/mL (≈ 38.1 µM)	–	–	–	–	–
